Patent US7795290B2 (Genentech, Inc., priority 2004, dated 2010)

target: T1, AKT1 (Homo sapiens, UniProt P31749); assay: HTS ATP-utilizing enzyme assay, off-chip mobility-shift (Caliper HTS 250); assay type: biochemical; conditions: kinase named = inhibitory activity/selectivity; test compound 10 μM; active = greater than three-sigma from mean
T1 construct: purchased Upstate 14-276
Procedure, shortened: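 AKT1 activity was measured by off-chip mobility shift (Caliper HTS 250) as the ratio of peptide substrate to phosphorylated product. Test compound was at 10 μM, with 2.5 h incubation at 20–22° C. EDTA wells served as 100% control and DMSO wells as 0%. Hits were called at three-sigma limits.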

T1 sequence (P31749 whole entry): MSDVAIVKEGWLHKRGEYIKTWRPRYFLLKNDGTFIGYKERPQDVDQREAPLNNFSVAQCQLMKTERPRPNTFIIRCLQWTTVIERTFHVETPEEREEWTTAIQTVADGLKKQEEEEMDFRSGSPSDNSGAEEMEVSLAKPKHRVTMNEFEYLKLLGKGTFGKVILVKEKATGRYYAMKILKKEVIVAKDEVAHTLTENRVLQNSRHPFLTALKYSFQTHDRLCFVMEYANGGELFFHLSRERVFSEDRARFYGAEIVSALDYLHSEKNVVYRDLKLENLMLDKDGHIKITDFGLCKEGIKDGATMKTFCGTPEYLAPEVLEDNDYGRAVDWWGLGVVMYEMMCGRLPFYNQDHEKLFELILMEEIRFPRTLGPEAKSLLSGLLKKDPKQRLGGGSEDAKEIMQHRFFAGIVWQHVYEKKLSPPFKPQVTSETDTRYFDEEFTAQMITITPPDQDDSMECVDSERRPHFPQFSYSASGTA

Activity, AKT1:
CCOC(=O)CC1CCCN(C(=O)CCCN(C(=O)c2cccs2)c2nc(-c3cc4ccccc4o3)cs2)C1 (centres unmarked) [ethyl 2-(1-(4-(N-(4-(benzofuran-2-yl)thiazol-2-yl)thiophene-2-carboxamido)butanoyl)piperidin-3-yl)acetate]
COC(=O)C1CCCN1C(=O)CCN(C(=O)c1cccs1)c1nc(-c2cc3ccccc3o2)cs1 (centres unmarked) [methyl 1-(3-(N-(4-(benzofuran-2-yl)thiazol-2-yl)thiophene-2-carboxamido)propanoyl)pyrrolidine-2-carboxylate]
Cn1cccc1C(=O)N(CCCN1CCCC1=O)c1nc(-c2cc3ccccc3o2)cs1 [N-(4-(benzofuran-2-yl)thiazol-2-yl)-1-methyl-N-(3-(2-oxopyrrolidin-1-yl)propyl)-1H-pyrrole-2-carboxamide]
CCN(CC)CCCN(C(=O)c1cccs1)c1nc(-c2ccc(OC)c(OC)c2)cs1 [N-(3-(diethylamino)propyl)-N-(4-(3,4-dimethoxyphenyl)thiazol-2-yl)thiophene-2-carboxamide]
NC(=O)C1CCCCN1C(=O)CCN(C(=O)c1cccs1)c1nc(-c2cc3ccccc3o2)cs1 (centres unmarked) [1-(3-(N-(4-(benzofuran-2-yl)thiazol-2-yl)thiophene-2-carboxamido)propanoyl)piperidine-2-carboxamide]
O=C(c1cccs1)N(CCCN1CCOCC1)c1nc(-c2nc3ccccc3s2)cs1 [N-(4-(benzo[d]thiazol-2-yl)thiazol-2-yl)-N-(3-morpholinopropyl)thiophene-2-carboxamide]
COC(=O)CNC(=O)CCCN(C(=O)c1cccs1)c1nc(-c2cc3ccccc3o2)cs1 [methyl 2-(4-(N-(4-(benzofuran-2-yl)thiazol-2-yl)thiophene-2-carboxamido)butanamido)acetate]
N#CCCN1CCN(CCCN(C(=O)c2cccs2)c2nc(-c3cc4ccccc4o3)cs2)CC1 [N-(4-(benzofuran-2-yl)thiazol-2-yl)-N-(3-(4-(2-cyanoethyl)piperazin-1-yl)propyl)thiophene-2-carboxamide]
COCCNC(=O)CCN(C(=O)c1cccs1)c1nc(-c2cc3ccccc3o2)cs1 [N-(4-(benzofuran-2-yl)thiazol-2-yl)-N-(3-(2-methoxyethylamino)-3-oxopropyl)thiophene-2-carboxamide]
COc1ccc(-c2csc(N(CCCN3CCCCCC3)C(=O)c3cccs3)n2)cc1 [N-(3-(azepan-1-yl)propyl)-N-(4-(4-methoxyphenyl)thiazol-2-yl)thiophene-2-carboxamide]
COc1ccc(OC)c(-c2csc(N(CCCN3CCOCC3)C(=O)c3ccco3)n2)c1 [N-(4-(2,5-dimethoxyphenyl)thiazol-2-yl)-N-(3-morpholinopropyl)furan-2-carboxamide]
CN(C)CCCNC(=O)c1ccc(-c2csc(N(CCCN3CCOCC3)C(=O)c3cccs3)n2)cc1 [N-(4-(4-(3-(dimethylamino)propylcarbamoyl)phenyl)thiazol-2-yl)-N-(3-morpholinopropyl)thiophene-2-carboxamide]
O=C(C1CCC1)N(CCCN1CCOCC1)c1nc(-c2cc3ccccc3o2)cs1 [N-(4-(benzofuran-2-yl)thiazol-2-yl)-N-(3-morpholinopropyl)cyclobutanecarboxamide]
COc1ccc(-c2csc(N(CCN3CCOCC3)C(=O)c3cccs3)n2)cc1OC [N-(4-(3,4-dimethoxyphenyl)thiazol-2-yl)-N-(2-morpholinoethyl)thiophene-2-carboxamide]
CC(=O)NCCCC(=O)NCCCN(C(=O)c1cccs1)c1nc(-c2cc3ccccc3o2)cs1 [N-(3-(4-acetamidobutanamido)propyl)-N-(4-(benzofuran-2-yl)thiazol-2-yl)thiophene-2-carboxamide]
CN(C(=O)CCN(C(=O)c1cccs1)c1nc(-c2cc3ccccc3o2)cs1)c1ccncc1 [N-(4-(benzofuran-2-yl)thiazol-2-yl)-N-(3-(methyl(pyridin-4-yl)amino)-3-oxopropyl)thiophene-2-carboxamide]
O=C(CCCN(C(=O)c1cccs1)c1nc(-c2cc3ccccc3o2)cs1)N(CCO)Cc1ccncc1 [N-(4-(benzofuran-2-yl)thiazol-2-yl)-N-(4-((2-hydroxyethyl)(pyridin-4-ylmethyl)amino)-4-oxobutyl)thiophene-2-carboxamide]
O=C(O)[C@H]1CCCN1CCCN(C(=O)c1cccs1)c1nc(-c2cc3ccccc3o2)cs1 [(R)-1-(3-(N-(4-(benzofuran-2-yl)thiazol-2-yl)thiophene-2-carboxamido)propyl)pyrrolidine-2-carboxylic acid]
CN(C)C(=O)[C@@H]1CCCN1CCCN(C(=O)c1cccs1)c1nc(-c2cc3ccccc3o2)cs1 [(S)-1-(3-(N-(4-(benzofuran-2-yl)thiazol-2-yl)thiophene-2-carboxamido)propyl)-N,N-dimethylpyrrolidine-2-carboxamide]
Cc1cnc(CNC(=O)CCCN(C(=O)c2cccs2)c2nc(-c3cc4ccccc4o3)cs2)cn1 [N-(4-(benzofuran-2-yl)thiazol-2-yl)-N-(4-((5-methylpyrazin-2-yl)methylamino)-4-oxobutyl)thiophene-2-carboxamide]
COc1ccc(-c2csc(N(CCCN3CCOCC3)C(=O)c3cccs3)n2)cc1OC [N-(4-(3,4-dimethoxyphenyl)thiazol-2-yl)-N-(3-morpholinopropyl)thiophene-2-carboxamide]
O=C(NCCCN(C(=O)c1cccs1)c1nc(-c2cc3ccccc3o2)cs1)c1ccncc1 [N-(3-(N-(4-(benzofuran-2-yl)thiazol-2-yl)thiophene-2-carboxamido)propyl)isonicotinamide]
COc1ccc(-c2csc(N(CCCN3CCOCC3)C(=O)c3nccn3C)n2)cc1 [N-(4-(4-methoxyphenyl)thiazol-2-yl)-1-methyl-N-(3-morpholinopropyl)-1H-imidazole-2-carboxamide]
O=C(c1cccs1)N(CCCN1CCOCC1)c1nc(-c2ccc3c(c2)OCO3)cs1 [N-(4-(benzo[d][1,3]dioxol-5-yl)thiazol-2-yl)-N-(3-morpholinopropyl)thiophene-2-carboxamide]
COc1ccc(OC)c(-c2csc(N(CCCN3CCCC3)C(=O)c3ccccc3)n2)c1 [N-(4-(2,5-dimethoxyphenyl)thiazol-2-yl)-N-(3-(pyrrolidin-1-yl)propyl)benzamide]
COc1ccc(-c2csc(N(CCCN3CCCC3)C(=O)c3ccccc3)n2)cc1 [N-(4-(4-methoxyphenyl)thiazol-2-yl)-N-(3-(pyrrolidin-1-yl)propyl)benzamide]
CCN(CC)CCCN(C(=O)c1cccs1)c1nc(-c2cc(OC)ccc2OC)cs1 [N-(3-(diethylamino)propyl)-N-(4-(2,5-dimethoxyphenyl)thiazol-2-yl)thiophene-2-carboxamide]
COC(=O)C1CCCN1C(=O)CCCN(C(=O)c1cccs1)c1nc(-c2cc3ccccc3o2)cs1 (centres unmarked) [methyl 1-(4-(N-(4-(benzofuran-2-yl)thiazol-2-yl)thiophene-2-carboxamido)butanoyl)pyrrolidine-2-carboxylate]
CC(C)(C)OC(=O)[C@@H]1CCCN1CCCN(C(=O)c1cccs1)c1nc(-c2cc3ccccc3o2)cs1 [(S)-tert-butyl 1-(3-(N-(4-(benzofuran-2-yl)thiazol-2-yl)thiophene-2-carboxamido)propyl)pyrrolidine-2-carboxylate]
O=C(c1ccc(-c2csc(N(CCCN3CCOCC3)C(=O)c3cccs3)n2)cc1)N1CCOCC1 [N-(4-(4-(morpholine-4-carbonyl)phenyl)thiazol-2-yl)-N-(3-morpholinopropyl)thiophene-2-carboxamide]
CN(CC(O)CO)C(=O)CCCN(C(=O)c1cccs1)c1nc(-c2cc3ccccc3o2)cs1 (centres unmarked) [N-(4-(benzofuran-2-yl)thiazol-2-yl)-N-(4-((2,3-dihydroxypropyl)(methyl)amino)-4-oxobutyl)thiophene-2-carboxamide]
COc1ccc(OC)c(-c2csc(N(CCCN3CCCCC3)C(=O)c3ccccc3)n2)c1 [N-(4-(2,5-dimethoxyphenyl)thiazol-2-yl)-N-(3-(piperidin-1-yl)propyl)benzamide]
COc1ccc(OC)c(-c2csc(N(CCCN3CCN(C)CC3)C(=O)c3ccccc3)n2)c1 [N-(4-(2,5-dimethoxyphenyl)thiazol-2-yl)-N-(3-(4-methylpiperazin-1-yl)propyl)benzamide]
O=C(c1cccs1)N(CCCN1CCOCC1)c1nc(-c2ccc(N3CCOCC3)cc2)cs1 [N-(4-(4-morpholinophenyl)thiazol-2-yl)-N-(3-morpholinopropyl)thiophene-2-carboxamide]
O=C(CCCN(C(=O)c1cccs1)c1nc(-c2cc3ccccc3o2)cs1)N1CCSC1 [N-(4-(benzofuran-2-yl)thiazol-2-yl)-N-(4-oxo-4-(thiazolidin-3-yl)butyl)thiophene-2-carboxamide]
O=C(CCCN(C(=O)c1cccs1)c1nc(-c2cc3ccccc3o2)cs1)N1CCCCC1 [N-(4-(benzofuran-2-yl)thiazol-2-yl)-N-(4-oxo-4-(piperidin-1-yl)butyl)thiophene-2-carboxamide]
O=C(Nc1nccs1)c1csc(N(CCCN2CCOCC2)C(=O)c2cccs2)n1 [2-(N-(3-morpholinopropyl)thiophene-2-carboxamido)-N-(thiazol-2-yl)thiazole-4-carboxamide]
NC(=O)C1CCN(C(=O)CCCN(C(=O)c2cccs2)c2nc(-c3cc4ccccc4o3)cs2)CC1 [1-(4-(N-(4-(benzofuran-2-yl)thiazol-2-yl)thiophene-2-carboxamido)butanoyl)piperidine-4-carboxamide]
